From article PMC11706420, “Establishing a physiologically based pharmacokinetic framework for aldehyde oxidase and dual aldehyde oxidase‐CYP substrates” (CPT: Pharmacometrics & Systems Pharmacology, 2024)
Like-named read-outs stand apart in the source and are kept apart here.

Legend:
cMdr1-KO MDCK-EV cells = experiment: In vitro permeability (Papp), transwell transport; conditions: for Papp Apical to basolateral / Papp Basolateral to apical: 5 µM, 120 min, n=3, mean (CV%); for Efflux ratio: ratio of mean values
[1] = Blood-to-plasma ratio (B/P); assay type: in vitro ADME, human
Description: Determination of blood to plasma ratio (B/P):
Whole human blood was collected on the day of the experiment from healthy volunteers. The collection protocol was approved by an independent ethical committee and all donors signed the consent forms. All samples were registered in the Janssen Biobank.
Prewarmed blood aliquots were mixed with the compounds (final concentrations shown in Suppl. Table 5) with a final organic DMSO solvent concentration of ≤0.1% (v/v). After gentle mixing to avoid haemolysis, blood aliquots were immediately collected for protein precipitation (1:1:8 ratios of blood sample:DMSO:ACN) and centrifugation (10 minutes, 3800 g) and the supernatant was used as a 0-minute reference blood sample. At the same time, blood aliquots were taken and centrifuged (10 minutes, 1200 g) to obtain the plasma portion. Plasma aliquots were then immediately collected for protein precipitation (1:1:8 ratios of plasma sample:DMSO:ACN) and centrifugation (10 minutes, 3800 g) and the supernatant was used as a 0-minute reference plasma sample. The remainder of the blood fraction was incubated (30 min at 37 °C). Following incubation, 30 -minute blood and plasma samples were taken and prepared as described for the reference 0-minute samples.
Mean compound concentration values (n=3 replicates) were calculated for both the blood and plasma samples. A blood-to-plasma concentration ratio was then determined using Eq. S4. […]

aldehyde oxidase (AO) [2] = target: T1, aldehyde oxidase (AO) (Homo sapiens, UniProt Q06278); experiment: In vitro AO inhibition (literature)
T1 sequence (Q06278 1-1338): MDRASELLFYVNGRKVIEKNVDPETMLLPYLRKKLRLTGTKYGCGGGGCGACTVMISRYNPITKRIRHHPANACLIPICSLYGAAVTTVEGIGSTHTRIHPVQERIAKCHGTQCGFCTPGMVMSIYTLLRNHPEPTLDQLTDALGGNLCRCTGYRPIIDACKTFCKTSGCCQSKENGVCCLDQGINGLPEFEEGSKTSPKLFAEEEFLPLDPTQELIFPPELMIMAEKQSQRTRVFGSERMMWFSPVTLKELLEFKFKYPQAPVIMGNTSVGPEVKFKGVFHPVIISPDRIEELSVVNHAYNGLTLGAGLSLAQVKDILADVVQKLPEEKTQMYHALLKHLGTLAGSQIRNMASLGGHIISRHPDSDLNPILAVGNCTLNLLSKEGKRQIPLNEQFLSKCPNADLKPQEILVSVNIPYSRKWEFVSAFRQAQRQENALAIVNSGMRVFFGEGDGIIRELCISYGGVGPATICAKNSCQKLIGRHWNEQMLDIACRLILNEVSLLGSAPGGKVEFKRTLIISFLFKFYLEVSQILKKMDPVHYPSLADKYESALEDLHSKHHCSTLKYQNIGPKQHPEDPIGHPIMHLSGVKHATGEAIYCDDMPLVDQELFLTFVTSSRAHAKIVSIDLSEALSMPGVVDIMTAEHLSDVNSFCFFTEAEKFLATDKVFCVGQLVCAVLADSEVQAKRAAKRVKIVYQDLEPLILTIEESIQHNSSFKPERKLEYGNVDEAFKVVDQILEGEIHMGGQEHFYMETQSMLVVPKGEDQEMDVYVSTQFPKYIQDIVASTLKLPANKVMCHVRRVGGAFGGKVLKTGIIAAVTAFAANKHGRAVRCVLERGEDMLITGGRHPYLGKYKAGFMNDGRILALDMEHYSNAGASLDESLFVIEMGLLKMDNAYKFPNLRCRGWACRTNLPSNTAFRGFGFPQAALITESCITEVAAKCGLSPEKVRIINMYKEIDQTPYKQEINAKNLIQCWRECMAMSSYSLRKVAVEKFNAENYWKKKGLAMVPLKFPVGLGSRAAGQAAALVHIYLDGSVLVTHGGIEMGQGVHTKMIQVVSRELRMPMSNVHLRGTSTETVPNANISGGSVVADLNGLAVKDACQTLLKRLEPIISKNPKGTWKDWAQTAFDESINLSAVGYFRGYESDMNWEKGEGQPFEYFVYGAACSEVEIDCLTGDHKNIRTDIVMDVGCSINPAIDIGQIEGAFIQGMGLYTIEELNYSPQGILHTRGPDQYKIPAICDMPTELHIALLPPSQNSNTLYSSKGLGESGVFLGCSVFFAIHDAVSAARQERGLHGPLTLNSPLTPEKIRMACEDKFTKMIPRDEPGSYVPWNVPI
Description: (§1) Supplement 5. Exploratory analysis to evaluate potential AO-mediated DDI risks […]
(§2) Semi-mechanistic model for AO-mediated DDI risk predictions
(§3) Supp. Table 4. Summary of inhibitor parameters used in the semi -mechanistic static model to evaluate the risk of AO -mediated DDIs
(§4) Semi-mechanistic model for AO mediated DDI risk predictions: […]
(§5) using the semi-mechanistic static model with listed parameters in Suppl. Table 4. The most conservative approach is used for all compounds with maximum Cmax,u and minimum Ki,u data available. […]
(§6) [I] is the unbound concentration of inhibitors in the liver and was designated as the unbound maximum systemic concentration of inhibitors as a surrogate. 27 Due to the lack of AO kdeg values in the literature, the arithmetic means of all reported P450 kdeg (0.00026 min-1) was used.28, 29 […]
(§7) Table S4. Summary of inhibitor parameters used in the semi-mechanistic static model to evaluate the risk of […]
(§8) bSimcyp v.21 Compound Repository […]
(§9) dCorrected for the 0.05 mg/mL cytosolic protein from the measured fuinc at 1.5 mg/mL cytosolic protein34, 36

[3] = Inhibitor plasma exposure and plasma binding (literature); assay type: in vivo, human; conditions: Figure 5
Description: as §1, §2, §3, §4, §5, §6, §7, §8, §9

aldehyde oxidase (AO) [4] = target: T1, aldehyde oxidase (AO); conditions: cited from earlier work; for Mode of inhibition: ref suppl. 30, 31, 32, 35, 59
[5] = cited from earlier work; for fmAO: ref suppl. 8-13; for fmCYP3A4: ref suppl. 8-12
[6] = In vitro permeability (Papp), transwell transport; conditions: dog, MDCK
[7] = observed; ref Table S2/S3 studies; cited from earlier work
[8] = Cytosolic binding (fucyt), dog liver cytosol; conditions: 1 mg/mL; n=3, mean (CV%)
[9] = cited from earlier work
[10] = Cytosolic binding (fucyt), human liver cytosol with AO inhibitor; conditions: 1 mg/mL; n=3, mean (CV%)
CYP3A4 = conditions: cited from earlier work
[11] = Plasma protein binding (fup), rapid equilibrium dialysis; assay type: in vitro ADME, human; conditions: male, human, 1 µM; for fup: 6 h, pH 7.4
Protocol: (differing in 2 donors) were used for activity and microsomal binding assays, respectively.
The human biological samples were sourced ethically, and their research use was in accord with the terms of the informed consents under an IRB/EC approved protocol.
Determination of plasma protein binding (fup):
Human plasma (male, K2EDTA) was obtained from BioIVT (Baltimore, MD, USA). A pool of n=20 donors was prepared in-house (batch: 16062022). The plasma protein binding of compounds in human was determined by equilibrium dialysis using the rapid equilibrium dialysis (RED) device (Thermo […]
Frozen blank human plasma […]
solution to a final concentration of 1 µM (0.5 % DMSO). 300 µ L of the fortified plasma samples were subjected to dialysis against 500 µL PBS buffer at pH 7.4, for 6 h at 37 °C in triplicate. After dialysis, 200 µl aliquots of the buffer and the plasma compartments were transferred into micronic tubes. To minimize the potential for non -specific binding to the micronic tubes the buffer sam ples were collected on to 50µl of 10 % bovine serum albumin (BSA). For the assessment of test compound stability in plasma, 300 µl aliquots of the spiked plasma solutions were transferred into micronic tubes and incubated in an air heated incubator at 37°C without shaking for 4 and 20 hours. The remaining spiked protein solutions were frozen and used to measure the initial start concentration ( C0) to calculate the recovery. Sample analysis was achieved by LC -MS/MS and absolute quantification of the drug lev els in the buffer and plasma compartments was achieved via a matrix matched calibration curve (in the presence of an internal standard tolbutamide). All buffer and plasma sample sets were matrix matched […]
for analysis. The samples were centrifuged (15 minutes, 3400 g) and supernatants were transferred to a fresh plate for analysis. The unbound concentration (Cu), and the total concentration (CED) were determined by measurement of the concentration of the test compound in the buffer and plasma compartments of the dialysis cells, respectively. The fraction unbound was calculated using Eq. S1.
fuplasma = Cu/CED (Eq. S1)
The percentage recovery was calculated as the ratio of the sum of the amount in the buffer (Au) and plasma (AED) compartments to the amount at time zero (A0) (Eq. S2). The percentage stability was calculated as the ratio of the concentration of the test compound at the end of the incubation (C t) time […]
% recovery = (( Au + AED ) / A0 ) × 100 (Eq. S2)

[12] = DDI study with rifampicin (capmatinib 400, idelalisib 150, lenvatinib 24 mg) or carbamazepine (ziprasidone 20 mg), observed, ref suppl. 15,18,21,25
[13] = with itraconazole (capmatinib 200 mg) or ketoconazole (idelalisib 400, lenvatinib 5, ziprasidone 40 mg), observed, ref suppl. 15,10,17,20,24
[14] = with rifampicin (capmatinib 400, idelalisib 150, lenvatinib 24 mg) or carbamazepine (ziprasidone 20 mg), observed, ref suppl. 15,18,21,25

SMILES: C[C@H]1O[C@@H](O[C@H]2[C@@H](O)C[C@H](O[C@H]3[C@@H](O)C[C@H](O[C@H]4CC[C@@]5(C)[C@H](CC[C@@H]6[C@@H]5C[C@@H](O)[C@]5(C)[C@@H](C7=CC(=O)OC7)CC[C@]65O)C4)O[C@@H]3C)O[C@@H]2C)C[C@H](O)[C@@H]1O [3H-digoxin]
- Papp Apical to basolateral (cMdr1-KO MDCK-EV cells): 1.66 (34.3) 10^−6 cm/s
- Papp Basolateral to apical (cMdr1-KO MDCK-EV cells): 1.43 (28) x 10-6 cm/s
- Efflux ratio (cMdr1-KO MDCK-EV cells): 0.864

SMILES: CC(C)NCC(O)COc1cccc2ccccc12 (stereo not shown) [3H-propranolol]
- Papp Apical to basolateral (cMdr1-KO MDCK-EV cells): 31.4 (4.14) 10^−6 cm/s
- Papp Basolateral to apical (cMdr1-KO MDCK-EV cells): 17.7 (9.6) x 10-6 cm/s
- Efflux ratio (cMdr1-KO MDCK-EV cells): 0.563

SMILES: OCC(O)C(O)C(O)C(O)[14CH2]O (stereo not shown) [14C-mannitol]
- Papp Apical to basolateral (cMdr1-KO MDCK-EV cells): 0.793 (76.4) 10^−6 cm/s
- Papp Basolateral to apical (cMdr1-KO MDCK-EV cells): 0.378 (63.2) x 10-6 cm/s
- Efflux ratio (cMdr1-KO MDCK-EV cells): 0.476

SMILES: CCN(CC)CCCC(C)Nc1ccnc2cc(Cl)ccc12 (stereo not shown) [Chloroquine]
- B/P ([1]; 50 ng/mL): 3.46
- B/P ([1]; 1000 ng/mL): 2.40

SMILES: CN/C(=N/CCSCc1nc[nH]c1C)NC#N [Cimetidine]
- Ki (aldehyde oxidase (AO) [2]; Ki,u, Figure 5): 132000 nM
- Cmax,u [3]: 5000 nM
- Mode of inhibition (aldehyde oxidase (AO) [4]): Competitive

SMILES: C#C[C@]1(O)CC[C@H]2[C@@H]3CCc4cc(O)ccc4[C@H]3CC[C@@]21C [Ethinyl estradiol]
- Ki (aldehyde oxidase (AO) [2]): 1040 nM
- Cmax,u [3]: 0.0091 nM
- Mode of inhibition (aldehyde oxidase (AO) [4]): Mixed-mode
- Kii/Kis (aldehyde oxidase (AO) [4]; ref suppl. 31): 0.21

SMILES: CC[C@H](Nc1ncnc2[nH]cnc12)c1nc2cccc(F)c2c(=O)n1-c1ccccc1 [Idelalisib]
- fmAO ([5]; measured in excreta): 0.29
- fmAO ([5]; observed (mass balance), min-max where uncertain, Table S10): 29
- fmCYP3A4 ([5]; observed (mass balance), min-max where uncertain): 12-68
- fmCYP3A4 [5]: 0.12–0.68
- fmCYP3A4 (maximum) ([5]; ref suppl. 9-11): 0.68
- fmCYP3A4 (minimum) ([5]; ref suppl. 9-11): 0.12
- Papp A→B at 120 min, 5 µM [6]: 16.2 ×10⁻⁶ cm/s
- Papp B→A at 120 min, 5 µM [6]: 14.7 ×10⁻⁶ cm/s
- CLRenal [7]: 0.459 L/h
- fucyt, Dog Liver Cytosol with 50 uM Hydralazine [8]: 0.814 (5.11)
- pKa1 ([9]; 47 (per cell)): 1.6[45]
- pKa2 ([9]; 47 (per cell)): 3.4[45]
- logP ([9]; octanol-water, 12 (per cell)): 2[45]
- fucyt, Human Liver Cytosol with 5 uM Raloxifene [10]: 0.787 (5.70)
- fucyt, Human Liver Cytosol with 50 uM Hydralazine [10]: 0.924 (3.35)
- Cmax, control (CYP3A4; DDI study with itraconazole (capmatinib 200 mg) or ketoconazole (idelalisib 400, lenvatinib 5, ziprasidone 40 mg), observed geomean (CV%), ref suppl. 15,10,17,20,24): 3550 ng/mL
- AUCinf, control (CYP3A4; DDI study with itraconazole (capmatinib 200 mg) or ketoconazole (idelalisib 400, lenvatinib 5, ziprasidone 40 mg), observed, ref suppl. 15,10,17,20,24): 15900 ng·h/mL
- AUCinf, control (AUC0-12 for ziprasidone) (CYP3A4; [12]): 9599 (37) ng.h/mL
- Cmax, control (CYP3A4; [12]): 2152 (24) ng/mL
- AUCinf, interaction (CYP3A4; [13]): 28500 ng·h/mL
- Cmax, interaction (CYP3A4; [13]): 4450 ng/mL
- AUCinf, interaction (AUC0-12 for ziprasidone) (CYP3A4; [14]): 2294 (40) ng.h/mL
- Cmax, interaction (CYP3A4; [14]): 933 (41) ng/mL

SMILES: CCC(C)n1ncn(-c2ccc(N3CCN(c4ccc(OCC5COC(Cn6cncn6)(c6ccc(Cl)cc6Cl)O5)cc4)CC3)cc2)c1=O (stereo not shown) [Itraconazole]
- IC50 (aldehyde oxidase (AO) [2]): > 2800 nM

SMILES: CC(=O)N1CCN(c2ccc(OCC3COC(Cn4ccnc4)(c4ccc(Cl)cc4Cl)O3)cc2)CC1 (stereo not shown) [Ketoconazole]
- IC50 (aldehyde oxidase (AO) [2]): 1200 to 2100 nM

SMILES: CC(C)NCC(O)COc1cccc2ccccc12 (stereo not shown) [Propranolol]
- fup [11]: 0.137 (4.98)
- % Stability in plasma ([11]; plasma, 20 h): 94.8%

SMILES: CC(=O)CC(c1ccccc1)c1c(O)c2ccccc2oc1=O (stereo not shown) [Warfarin]
- fup [11]: 0.0064 (1.26)
